Reference: the NIST ThermoML archive (doi:10.1021/je100757w)
± gives the expanded uncertainty stated by the source.

Assay: xn = mol fraction of the nth substance listed
Details: for surface tension liquid-gas: Ring tensiometer; for mass density: 101.3 kPa, Liquid

COCCOCCOCCOCCOC [2,5,8,11,14-pentaoxapentadecane] + O
Details | mass density [kg/m3] | surface tension liquid-gas [mN/m]
298.15 K, x1 = 0.0016 | – | 50.16 ± 0.86
298.15 K, x1 = 0.002 | – | 48.89 ± 0.87
298.15 K, x1 = 0.0026 | – | 47.04 ± 0.86
298.15 K, x1 = 0.0031 | – | 46.37 ± 0.85
298.15 K, x1 = 0.0092 | – | 43.11 ± 0.8
298.15 K, x1 = 0.0142 | 1011.13 ± 0.29 | –
298.15 K, x1 = 0.0174 | – | 41.23 ± 0.79
298.15 K, x1 = 0.0283 | – | 40.1 ± 0.78
298.15 K, x1 = 0.057 | – | 39.54 ± 0.78
298.15 K, x1 = 0.0746 | – | 38.88 ± 0.77
298.15 K, x1 = 0.0747 | 1035.25 ± 0.38 | –
298.15 K, x1 = 0.1026 | – | 38.65 ± 0.77
298.15 K, x1 = 0.1452 | 1036.72 ± 0.42 | –
298.15 K, x1 = 0.1497 | – | 37.66 ± 0.77
298.15 K, x1 = 0.2264 | – | 36.29 ± 0.77
298.15 K, x1 = 0.2309 | 1031.3 ± 0.47 | –
298.15 K, x1 = 0.2862 | – | 35.79 ± 0.77
298.15 K, x1 = 0.2974 | 1026.41 ± 0.52 | –
298.15 K, x1 = 0.4065 | 1020.2 ± 0.65 | –
298.15 K, x1 = 0.4268 | – | 35.09 ± 0.78
298.15 K, x1 = 0.5085 | 1016.34 ± 0.81 | –
298.15 K, x1 = 0.5414 | – | 34.92 ± 0.8
298.15 K, x1 = 0.5863 | 1014.23 ± 0.96 | –
298.15 K, x1 = 0.6144 | – | 34.46 ± 0.81
298.15 K, x1 = 0.6788 | 1012.16 ± 1.2 | –
298.15 K, x1 = 0.787 | – | 34.2 ± 0.85
298.15 K, x1 = 0.8139 | 1009.47 ± 1.5 | –
298.15 K, x1 = 0.8286 | – | 34.19 ± 0.86
298.15 K, x1 = 0.854 | 1008.76 ± 1.6 | –
298.15 K, x1 = 0.9196 | – | 33.91 ± 0.88
298.15 K, x1 = 0.9569 | 1007.43 ± 2 | –
298.15 K, x1 = 1 | 1007.26 ± 2.1 | 33.74 ± 0.89
308.15 K, x1 = 0.0014 | – | 51 ± 0.86
308.15 K, x1 = 0.0023 | – | 46.99 ± 0.83
308.15 K, x1 = 0.0032 | – | 45.45 ± 0.82
308.15 K, x1 = 0.004 | – | 44.21 ± 0.81
308.15 K, x1 = 0.009 | – | 42.87 ± 0.8
308.15 K, x1 = 0.0142 | 1006.56 ± 0.27 | –
308.15 K, x1 = 0.0175 | – | 39.9 ± 0.78
308.15 K, x1 = 0.0275 | – | 39.08 ± 0.77
308.15 K, x1 = 0.0539 | – | 38.34 ± 0.77
308.15 K, x1 = 0.0715 | – | 37.36 ± 0.76
308.15 K, x1 = 0.0747 | 1027.26 ± 0.35 | –
308.15 K, x1 = 0.099 | – | 37.28 ± 0.76
308.15 K, x1 = 0.1452 | 1027.67 ± 0.39 | –
308.15 K, x1 = 0.1478 | – | 35.51 ± 0.75
308.15 K, x1 = 0.2212 | – | 34.95 ± 0.76
308.15 K, x1 = 0.2309 | 1022.01 ± 0.44 | –
308.15 K, x1 = 0.2974 | 1017.12 ± 0.49 | –
308.15 K, x1 = 0.3074 | – | 34.22 ± 0.76
308.15 K, x1 = 0.4065 | 1010.92 ± 0.61 | –
308.15 K, x1 = 0.4252 | – | 33.85 ± 0.77
308.15 K, x1 = 0.5085 | 1007.06 ± 0.77 | –
308.15 K, x1 = 0.5523 | – | 33.58 ± 0.79
308.15 K, x1 = 0.5863 | 1004.92 ± 0.92 | –
308.15 K, x1 = 0.6404 | – | 33.32 ± 0.8
308.15 K, x1 = 0.6788 | 1002.83 ± 1.1 | –
308.15 K, x1 = 0.7835 | – | 33.05 ± 0.83
308.15 K, x1 = 0.8139 | 1000.17 ± 1.5 | –
308.15 K, x1 = 0.814 | – | 32.88 ± 0.84
308.15 K, x1 = 0.854 | 999.47 ± 1.6 | –
308.15 K, x1 = 0.9479 | – | 32.64 ± 0.87
308.15 K, x1 = 0.9569 | 998.16 ± 1.9 | –
308.15 K, x1 = 1 | 997.98 ± 2.1 | 32.45 ± 0.88
318.15 K, x1 = 0.0013 | – | 58.46 ± 0.93
318.15 K, x1 = 0.0019 | – | 54.2 ± 0.89
318.15 K, x1 = 0.0024 | – | 51.29 ± 0.89
318.15 K, x1 = 0.0033 | – | 47.59 ± 0.86
318.15 K, x1 = 0.0098 | – | 42.27 ± 0.79
318.15 K, x1 = 0.0142 | 1001.29 ± 0.26 | –
318.15 K, x1 = 0.0187 | – | 40.41 ± 0.78
318.15 K, x1 = 0.0314 | – | 40.39 ± 0.78
318.15 K, x1 = 0.0584 | – | 38.25 ± 0.77
318.15 K, x1 = 0.0747 | 1019.04 ± 0.33 | –
318.15 K, x1 = 0.0748 | – | 37.24 ± 0.76
318.15 K, x1 = 0.1022 | – | 36.5 ± 0.76
318.15 K, x1 = 0.1452 | 1018.51 ± 0.36 | –
318.15 K, x1 = 0.1482 | – | 35.37 ± 0.75
318.15 K, x1 = 0.2219 | – | 33.81 ± 0.75
318.15 K, x1 = 0.2309 | 1012.58 ± 0.41 | –
318.15 K, x1 = 0.2974 | 1007.72 ± 0.46 | –
318.15 K, x1 = 0.3152 | – | 33.3 ± 0.75
318.15 K, x1 = 0.4065 | 1001.56 ± 0.58 | –
318.15 K, x1 = 0.4328 | – | 32.94 ± 0.77
318.15 K, x1 = 0.5085 | 997.73 ± 0.75 | –
318.15 K, x1 = 0.5259 | – | 32.75 ± 0.78
318.15 K, x1 = 0.5863 | 995.58 ± 0.91 | –
318.15 K, x1 = 0.5974 | – | 32.47 ± 0.79
318.15 K, x1 = 0.6788 | 993.48 ± 1.1 | –
318.15 K, x1 = 0.7667 | – | 32.22 ± 0.82
318.15 K, x1 = 0.8139 | 990.83 ± 1.5 | –
318.15 K, x1 = 0.8249 | – | 32.05 ± 0.83
318.15 K, x1 = 0.854 | 990.15 ± 1.6 | –
318.15 K, x1 = 0.9324 | – | 31.94 ± 0.85
318.15 K, x1 = 0.9569 | 988.89 ± 1.9 | –
318.15 K, x1 = 1 | 988.72 ± 2.1 | 31.71 ± 0.87
